Experimental data: patent publication US10117874B2, “Combination of PI3K-inhibitors” (BAYER PHARMA AKTIENGESELLSCHAFT, priority 2013, dated 2018)

Columns and labels:
[1] = test system: PC-3 prostate cancer cells; assay: WST-1 based proliferation assay, PC-3; format: cell-based, human; conditions: PC3 (AR-negative, PTEN loss); WST-1 absorbance 450 nm, days 1-5; compound A′ 50/500 nM, compound B 1600/800 Bq/ml
Description: (§1) The effects of PI3K inhibitor compound A′ and compound B in MCF-7 and 4T1 breast cancer cells and PC-3 and LNCaP prostate cancer cells were investigated in vitro as single agent and in combination. The effects were studied by measuring cell proliferation and apoptosis. Compound B and the reference inhibitor doxorubicin were added at day 0. The PI3K inhibitors were added at day −1 (24 hours before addition of Alpharadin) and at day 4. The following two concentrations of the inhibitors and two concentrations of radium 223 in 4 replicates were tested:
(§2) The effects on cell proliferation were studied using a WST-1 based proliferation assay and the effects on apoptosis were studied in parallel plates by measuring caspase 3/7 activity. The measurements were performed at 4 different time points, days 1, 2, 3 and 5. Caspase activity was normalized to the cell number obtained with the WST-1 assay in parallel plates.
(§3) The results are shown as Absorbance (450 nm) measured in the WST-1 proliferation assay (MEAN).

4T1 breast cancer cells = assay: WST-1 based proliferation assay, 4T1; format: cell-based, mouse
Description: as §1, §2, §3

[2] = test system: MCF-7 breast cancer cells; assay: WST-1 based proliferation assay, MCF-7; format: cell-based, human; conditions: MCF-7 (ER+, PIK3CA mutation); WST-1 absorbance 450 nm, days 1-5; compound A′ 50/500 nM, compound B 1600/800 Bq/ml
Description: as §1, §2
(§4) (A) The results are shown as Absorbance (450 nm) measured in the WST-1 proliferation assay (MEAN). (B) The results are shown as Caspase 3/7/WST-1 values (MEAN). […] (B) The effects of PI3K inhibitor compound A′ and Radium 223 on MCF-7 cell caspase 3/7 activity at days 2. The results are shown as Caspase 3/7/WST-1 values (MEAN+SEM).

[3] = test system: LNCaP prostate cancer cells; assay: WST-1 based proliferation assay, LNCaP; format: cell-based, human
Description: as §1, §2
(A) The results are shown as Absorbance (450 nm) measured in the WST-1 proliferation assay (MEAN).

[4] = test system: MCF-7 breast cancer cells; assay: Apoptosis by caspase 3/7 activity, MCF-7; format: cell-based, human; conditions: day 2, caspase activity normalized to WST-1 cell number
Description: as §1, §2, §4

[5] = single doses up to 250 kBq per kg body weight; cited from earlier work
[6] = test system: CRPC (Castration Resistant Prostate Cancer) and bone metastases; conditions: cited from earlier work
[7] = phase 1 and 2 studies; patients with bone metastases; cited from earlier work
CRPC and bone metastases = conditions: Phase 2 studies; cited from earlier work
[8] = LNCaP (AR-positive, PTEN loss), WST-1 absorbance 450 nm, days 1-5
[9] = WST-1 absorbance 450 nm, days 1-5, compound A′ 100/1000 nM, compound B 1600/800 Bq/ml
[10] = ALSYMPCA trial, patients with CRPC and bone metastases

| SMILES | inhibition of tumor cell proliferation [1] | inhibition of tumor cell proliferation (4T1 breast cancer cells; lower (100 nM) dose) | inhibition of tumor cell proliferation [2] | inhibition of tumor cell proliferation [3, 8] | apoptosis / tumor cell death induction (caspase 3/7 / WST-1) [4] | inhibition of tumor cell proliferation (4T1 breast cancer cells; [9]) | inhibition of tumor cell proliferation (4T1 breast cancer cells; higher dose) | cases of grade 3 neutropenia [5] | observed adverse reactions [5] | median survival longer than placebo [6, 10] [months] | reduction in risk of death compared with placebo [6, 10] [%] | time to first skeletal-related event ([6]; ALSYMPCA trial, versus placebo) | median overall survival ([6]; Phase III clinical trials) | safety profile [7] | inhibition of tumor cell proliferation ([3]; LNCaP, high dose (1600 Bq/mL)) | pain and disease-related biomarkers (bone ALP, PSA) (CRPC and bone metastases) |
| --- | --- | --- | --- | --- | --- | --- | --- | --- | --- | --- | --- | --- | --- | --- | --- | --- |
| COc1c(OCCCN2CCOCC2)ccc2c1N=C(NC(=O)c1cnc(N)nc1)N1CCN=C21.Cl.Cl [compound A′, 2-amino-N-[7-methoxy-8-(3-morpholin-4-ylpropoxy)-2,3-dihydroimidazo[1,2-c]quinazolin-5-yl]pyrimidine-5-carboxamide dihydrochloride] | better anti-proliferactive activity | only moderate inhibition of tumor cell proliferation | potent anti-proliferative activity | strong anti-proliferative effects | only at high dose can induce apoptosis |  |  |  |  |  |  |  |  |  |  |  |
| [Cl][223Ra][Cl] [compound B, radium-223 dichloride] | moderate inhibition of tumor cell proliferation |  | only slight inhibition of tumor cell proliferation |  | could not induce tumor cell death | only moderate inhibition of tumor cell proliferation | strong anti-proliferative effects | ⅕ | diarrhea and reversible myelosuppression | 2.8 | 30.5 | significantly prolonged | Significant increase in median overall survival | favorable safety profile, with minimal myelotoxicity | effective | reduces pain, improves disease-related biomarkers |
| COc1cccc2c1C(=O)c1c(O)c3c(c(O)c1C2=O)C[C@@](O)(C(=O)CO)C[C@@H]3O[C@H]1C[C@H](N)[C@H](O)[C@H](C)O1 [doxorubicin] | inhibited proliferation |  | inhibited proliferation | inhibited proliferation |  | inhibited proliferation |  |  |  |  |  |  |  |  |  |  |
